Measurements from ChEMBL document CHEMBL6071133, “Discovery of novel penetrating peptides able to target human leukemia and lymphoma for enhanced PROTAC delivery” (Eur J Med Chem, 2024).
Activity calls are given as the source filed them. No cut-off for these calls is given here.

Columns and labels:
[1] = tested on: K562; experiment: Induction of cell cycle arrest in human K562 cells assessed as accumulation of cells at G2/M phase at PROTAC to compound concentration ratio of 1:5 incubated for 48 hrs in presence of 3 umol/L IMA-PROTAC by propidium iodide staining based flow cytometry; assay type: functional
[2] = Stability of the compound in fetal bovine serum assessed as parent compound remaining measured after 36 hrs by HPLC-MS analysis; assay type: ADME, cell-free, Bos taurus; conditions: cattle, read-out: Stability
[3] = Drug uptake in human K562 cells assessed as membrane penetration by measuring increase in fluorescence intensity at 5 umol/L incubated for 2 hrs by flow cytometry relative to C9C; assay type: ADME, cell-based; conditions: k562, 2 h, 5 µM, dose 5 µmol/L
[4] = Drug uptake in human CCRF-CEM cells assessed as increase in fluorescence intensity at 1 to 10 uM incubated for 2 hrs by flow cytometry; assay type: ADME, cell-based; conditions: dose 1-10 µM
[5] = Drug uptake in human K562 cells assessed as fluorescence intensity at 5 umol/L pretreated with endocytosis inhibitor, chlorpromazine for 0.5 hrs followed by incubation with compound for 2 hrs by FACS analysis; assay type: ADME, cell-based; conditions: k562, 2 h, 5 µM, dose 5 µmol/L
[6] = Drug uptake in human K562 cells assessed as increase in fluorescence intensity at 1 to 10 umol/L incubated for 2 hrs by cell imaging based fluorescence microscopic analysis; assay type: ADME; conditions: k562, 2 h, dose 1-10 µmol/L
[7] = Drug uptake in human CCRF-CEM cells assessed as perinuclear distribution and colocalization with nucleus at 10 umol/L incubated for 2 hrs by confocal laser microscopy; assay type: ADME, cell-based; conditions: 10 µM, dose 10 µmol/L
[8] = Drug uptake in human KU812 cells assessed as perinuclear distribution and colocalization with nucleus at 10 umol/L incubated for 2 hrs by confocal laser microscopy; assay type: ADME, cell-based; conditions: ku812, 2 h, 10 µM, dose 10 µmol/L
[9] = tested on: K562; experiment: Induction of apoptosis in human K562 cells assessed as necrotic cells at PROTAC to compound concentration ratio of 1:5 incubated for 48 hrs in presence of 3 umol/L IMA-PROTAC by AnnexinV-FITC/PI staining based flow cytometry (reference value: 0.1%); assay type: functional

CC(C)C[C@H](NC(=O)[C@H](Cc1csc2ccccc12)NC(=O)[C@@H](Cc1ccccc1)NC(=O)[C@H](Cc1ccccc1)NC(=O)CNC(=O)[C@@H](N)CS)C(=O)N[C@@H](CCCNC(=N)N)C(=O)N[C@@H](CO)C(=O)N[C@@H](CS)C(=O)O
Activity [1]: Active | remaining at 36 h [2]: 55% | fold change (FC) [3]: 4.03 | Drug uptake [4]: Dose-Dependent Effect | Drug uptake [5]: Not Active | Drug uptake [6]: Active | Drug uptake [7]: Active | Drug uptake [8]: Active | Activity [9]: 0%
